Consider 43 molecules from ChEMBL document CHEMBL1143396, “Additivity in the analysis and design of HIV protease inhibitors” (J Med Chem, 2009).

The assay deals with Human immunodeficiency virus type 1 protease (Human immunodeficiency virus 1, UniProt Q72874, Q7K). Briefly: Inhibition of HIV1 protease Q7K mutant by FRET method.

The structures appear in SMILES notation.

Turning to `COc1ccc(S(=O)(=O)N(CC(C)C)C[C@@H](O)[C@H](Cc2ccccc2)NC(=O)/C=C(\C)C(F)(F)F)cc1`, the Ki was 0.39 nM (read-out: Ki) and 0.389 nM (read-out: pKi (converted)).
The corresponding values for `C/C(=C\C(=O)N(C)[C@@H](Cc1ccccc1)[C@H](O)CN(Cc1cccs1)S(=O)(=O)c1cc(F)c(F)cc1F)C(F)(F)F` are 52.6 nM and 52.5 nM.
The corresponding values for `CC[C@H](C)CN(C[C@@H](O)[C@H](Cc1ccccc1)NC(=O)[C@@H]1CN(c2cccc(C(C)=O)c2)C(=O)O1)S(=O)(=O)c1ccc(OC)cc1` are 0.232 nM and 0.234 nM.
As to `COc1cccc(S(=O)(=O)N(CC2CC2)C[C@@H](O)[C@H](Cc2ccccc2)NC(=O)c2cccc(C)n2)c1`, the Ki was 14600 nM (read-out: Ki) and 14500 nM (read-out: pKi (converted)).
The corresponding values for `CNC(=O)CCC(=O)N[C@@H](Cc1ccccc1)[C@H](O)CN(C[C@H](C)O)S(=O)(=O)c1cccc(OC)c1` are 764 nM and 759 nM.
Regarding `Cc1cccc(C(=O)N[C@@H](Cc2ccccc2)[C@H](O)CN(C[C@H](C)O)S(=O)(=O)c2ccco2)n1`, the Ki (read-out: Ki) is greater than 10000 nM.
Turning to `Cc1cccc(OS(=O)(=O)N(C[C@H](C)O)C[C@@H](O)[C@H](Cc2ccccc2)NC(=O)C[C@H]2C=CCC2)c1`, the Ki reads like this: (read-out: Ki) 13600 nM; (read-out: pKi (converted)) 13500 nM.
The corresponding values for `CCCCCN(C[C@@H](O)[C@H](Cc1ccccc1)NC(=O)CCC(=O)CC)S(=O)(=O)c1ccc2ncsc2c1` are 1.62 nM and 1.62 nM.
The corresponding values for `CCCCCN(C[C@@H](O)[C@H](Cc1ccccc1)NC(=O)CCC(=O)CC)S(=O)(=O)c1ccc(OC)cc1` are 4.17 nM and 4.17 nM.
As to `CCCCCN(C[C@@H](O)[C@H](Cc1ccccc1)NC(=O)c1cccc(O)c1)S(=O)(=O)c1ccc(OC)cc1`, the Ki was 1.45 nM (read-out: Ki) and 1.45 nM (read-out: pKi (converted)).
Regarding `COc1cccc(S(=O)(=O)N(C[C@@H](O)[C@H](Cc2ccccc2)NC(=O)c2cccc(C)n2)C[C@@H](C)O)c1`, the Ki (read-out: Ki) stood at 12200 nM and the Ki (read-out: pKi (converted)) was 12300 nM.
The corresponding values for `CNC(=O)CCC(=O)N[C@@H](Cc1ccccc1)[C@H](O)CN(C[C@H](C)O)S(=O)(=O)c1ccco1` are 543 nM and 537 nM.
The corresponding values for `Cc1cccc(OS(=O)(=O)N(CC2CC2)C[C@@H](O)[C@H](Cc2ccccc2)NC(=O)C[C@H]2C=CCC2)c1` are 2020 nM and 2040 nM.
With `O=C(C[C@H]1C=CCC1)N[C@@H](Cc1ccccc1)[C@H](O)CN(CC1CC1)S(=O)(=O)c1ccco1`, for the setting “read-out: Ki”, the Ki is greater than 10000 nM.
Still for that read-out and setting: the value for `Cc1cccc(OS(=O)(=O)N(C[C@@H](O)[C@H](Cc2ccccc2)NC(=O)C[C@H]2C=CCC2)C[C@@H](C)O)c1` was greater than 10000 nM.
Take `C[C@H](O)CN(C[C@@H](O)[C@H](Cc1ccccc1)NC(=O)C[C@H]1C=CCC1)S(=O)(=O)c1ccco1`: the Ki reads like this: (read-out: Ki) 259 nM; (read-out: pKi (converted)) 257 nM.
The corresponding values for `CCC(=O)CCC(=O)N[C@@H](Cc1ccccc1)[C@H](O)CN(CC(C)C)S(=O)(=O)c1ccc(OC)cc1` are 0.24 nM and 0.24 nM.
The corresponding values for `COc1cccc(S(=O)(=O)N(C[C@H]2CCCO2)C[C@@H](O)[C@H](Cc2ccccc2)NC(=O)[C@@H]2CN(c3cccc(F)c3)C(=O)O2)c1` are 150 nM and 151 nM.
The corresponding values for `CCCCCN(C[C@@H](O)[C@H](Cc1ccccc1)NC(=O)c1cccc(O)c1)S(=O)(=O)c1ccc2ncsc2c1` are 0.309 nM and 0.309 nM.
Take `CC[C@H](C)CN(C[C@@H](O)[C@H](Cc1ccccc1)NC(=O)c1ccc(O)c(O)c1)S(=O)(=O)c1ccc(OC)cc1`: the Ki runs as follows: (read-out: Ki) 0.38 nM; (read-out: pKi (converted)) 0.38 nM.
Consider `COc1cccc(S(=O)(=O)N(Cc2cccs2)C[C@@H](O)[C@H](Cc2ccccc2)NC(=O)c2cc(O)c(O)c(O)c2)c1`, for which the Ki is 1150 nM (read-out: Ki) and 1150 nM (read-out: pKi (converted)).
`COc1cccc(S(=O)(=O)N(Cc2cccs2)C[C@@H](O)[C@H](Cc2ccccc2)NC(=O)[C@H]2CCCC[C@@H]2C)c1`: the Ki reads like this: (read-out: Ki) 582 nM; (read-out: pKi (converted)) 589 nM.
The corresponding values for `O=C(Cc1cccs1)N[C@@H](Cc1ccccc1)[C@H](O)CN(Cc1cccs1)S(=O)(=O)c1cc(F)c(F)cc1F` are 2360 nM and 2340 nM.
On to `COc1cccc(S(=O)(=O)N(Cc2cccs2)C[C@@H](O)[C@H](Cc2ccccc2)Nc2cc(F)c(F)c(O)c2F)c1`, for which the Ki was 515 nM (read-out: Ki) and 513 nM (read-out: pKi (converted)).
The corresponding values for `O=C(N[C@@H](Cc1ccccc1)[C@H](O)CN(Cc1cccs1)S(=O)(=O)c1cc(F)c(F)cc1F)c1ccnnc1` are 1060 nM and 1070 nM.
The corresponding values for `CC(=O)/C=C/C(=O)N[C@@H](Cc1ccccc1)[C@H](O)CN(Cc1cccs1)S(=O)(=O)c1cc(F)c(F)cc1F` are 610 nM and 617 nM.
The corresponding values for `CCCCCN(C[C@@H](O)[C@H](Cc1ccccc1)NC(=O)C[C@@H](O)CC)S(=O)(=O)c1ccc(OC)cc1` are 0.86 nM and 0.851 nM.
Turning to `CCCCCN(C[C@@H](O)[C@H](Cc1ccccc1)NC(=O)[C@@H](O)C(C)C)S(=O)(=O)c1ccc(OC)cc1`, the Ki (read-out: Ki) came out at 2.48 nM and the Ki (read-out: pKi (converted)) was 2.45 nM.
The corresponding values for `CC[C@H](O)CC(=O)N[C@@H](Cc1ccccc1)[C@H](O)CN(CC(C)C)S(=O)(=O)c1ccc(OC)cc1` are 0.37 nM and 0.372 nM.
The corresponding values for `CCCCCN(C[C@@H](O)[C@H](Cc1ccccc1)NC(=O)[C@@H](O)C(C)C)S(=O)(=O)c1ccc2ncsc2c1` are 0.82 nM and 0.813 nM.
The corresponding values for `CC[C@@H](C)CN(C[C@@H](O)[C@H](Cc1ccccc1)NC(=O)[C@@H](O)C(C)C)S(=O)(=O)c1ccc(OC)cc1` are 0.617 nM and 0.617 nM.
Take `CC[C@@H](C)CN(C[C@@H](O)[C@H](Cc1ccccc1)NC(=O)C[C@@H](O)CC)S(=O)(=O)c1ccc(OC)cc1`: the Ki is 0.34 nM (read-out: Ki) and 0.339 nM (read-out: pKi (converted)).
The corresponding values for `CCCCCN(C[C@@H](O)[C@H](Cc1ccccc1)NC(=O)C1(C(N)=O)CC1)S(=O)(=O)c1ccc(OC)cc1` are 0.79 nM and 0.794 nM.
In the case of `CC[C@@H](C)CN(C[C@@H](O)[C@H](Cc1ccccc1)NC(=O)C1(C(N)=O)CC1)S(=O)(=O)c1ccc(OC)cc1`, the Ki (read-out: Ki) stood at 0.21 nM.
For `CNC(=O)CCC(=O)N[C@@H](Cc1ccccc1)[C@H](O)CN(C[C@@H](C)O)S(=O)(=O)c1cccc(OC)c1`, the Ki was 1170 nM (read-out: Ki) and 1170 nM (read-out: pKi (converted)).
Take `CCCCCN(C[C@@H](O)[C@H](Cc1ccccc1)NC(=O)C[C@@H](O)CC)S(=O)(=O)c1ccc2ncsc2c1`: the Ki (read-out: Ki) came to 0.7 nM and the Ki (read-out: pKi (converted)) was 0.708 nM.
The corresponding values for `CC(C)CN(C[C@@H](O)[C@H](Cc1ccccc1)NC(=O)[C@@H](O)C(C)C)S(=O)(=O)c1ccc2ncsc2c1` are 0.29 nM and 0.288 nM.
The corresponding values for `COc1cccc(S(=O)(=O)N(C[C@H]2CCCO2)C[C@@H](O)[C@H](Cc2ccccc2)NC(=O)[C@@H]2CN(c3ccccc3)C(=O)O2)c1` are 42 nM and 41.7 nM.
For `Cc1cccc(C(=O)N[C@@H](Cc2ccccc2)[C@H](O)CN(CC2CC2)S(=O)(=O)c2ccco2)n1`, where the note is “read-out: Ki”, the Ki is greater than 10000 nM.
With `COc1cccc(S(=O)(=O)N(C[C@H](C)O)C[C@@H](O)[C@H](Cc2ccccc2)NC(=O)c2cccc(C)n2)c1`, the Ki reads like this: (read-out: Ki) 4760 nM; (read-out: pKi (converted)) 4790 nM.
The corresponding values for `Cc1oncc1S(=O)(=O)N(Cc1cccs1)C[C@@H](O)[C@H](Cc1ccccc1)NC(=O)/C=C/C(C)C(F)(F)F` (stereo partly specified) are 13200 nM and 13200 nM.
Regarding `CC(=O)/C=C/C(=O)N[C@@H](Cc1ccccc1)[C@H](O)CN(Cc1cccs1)S(=O)(=O)c1cnoc1C`, the Ki runs as follows: (read-out: Ki) 26300 nM; (read-out: pKi (converted)) 26300 nM.
Turning to `COc1ccc(S(=O)(=O)N(CC(C)C)C[C@@H](O)[C@H](Cc2ccccc2)NC(=O)[C@@H](O)C(C)C)cc1`, the Ki reads like this: (read-out: Ki) 1.88 nM; (read-out: pKi (converted)) 1.86 nM.
